Values joined by “and” are separate entries in the source; they are usually repeats but may differ in a detail not shown here. Identical values can stand only once.
Experiments:
[1] = tested on: firefly luciferase (Fluc) gene with UAG nonsense codon at position 109 in HeLa cells; experiment: Firefly luciferase readthrough assay, UAG PTC construct; type: cell-based, human
[2] = tested on: nonsense-mediated mRNA decay (NMD) in Calu-6 cells; experiment: NMD efficiency: p53 mRNA / GAPDH mRNA by RT-PCR; type: cell-based, human; details: 24 h, both tested concentrations
Procedure: Source data are provided as a Source Data file.
Total RNA was purified from Calu-6 cells after 24 h of treatment.
RNA was purified using RNazol (MRC) according to the manufacturer’s instructions. 1/5 of the RNA preparation was used for reverse-transcription (RT) PCR (RT-PCR) using Superscript II (Life Technologies) for 2 h at 42 °C in the presence of random hexamers. The resulting cDNAs were PCR amplified in the presence of dCTP(α^33P) (Perkin Elmer) with the following primers: GAPDH mRNA (sense: 5′-[…]-3′; antisense: 5′-[…]-3′), p53 mRNA (sense: 5′-[…]-3′; antisense: 5′-[…]-3′), p21 mRNA (sense: 5′-[…]-3′; antisense: 5′-[…]-3′). PCR products were quantified with Personal Molecular Imager and QuantityOne quantification software (Bio-Rad).

CTU1 = biological target: T1, CTU1 (Homo sapiens, UniProt Q7Z7A3); experiment: UGA readthrough luciferase assay with CTU1 overexpression; type: cell-based;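 as to luciferase activity, average: DAP exposure for 24 h before luciferase measurement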;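 as to luciferase activity, exp2: DAP exposure for 24 h before luciferase measurement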
T1 construct: host or cells: HeLa
T1 sequence (Q7Z7A3 1-348): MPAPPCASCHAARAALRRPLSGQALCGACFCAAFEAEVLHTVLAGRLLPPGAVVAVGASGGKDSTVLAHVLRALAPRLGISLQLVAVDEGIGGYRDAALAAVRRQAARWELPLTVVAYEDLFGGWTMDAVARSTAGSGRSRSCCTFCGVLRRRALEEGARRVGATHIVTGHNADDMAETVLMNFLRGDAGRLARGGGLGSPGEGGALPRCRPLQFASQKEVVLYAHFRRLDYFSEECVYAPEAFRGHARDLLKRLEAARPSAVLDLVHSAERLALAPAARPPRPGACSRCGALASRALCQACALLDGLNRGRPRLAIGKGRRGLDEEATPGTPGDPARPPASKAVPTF
From the text: Firefly luciferase from HEK293FT cells transfected with the Fluc-int-UGA construct was immunoprecipitated and digested with trypsin. The MS/MS spectrum of the peptide containing the PTC position and the sequence determination are shown. The upper red and blue sequences indicate the amino acids validated, respectively, by detection of Nter and Cter peptide fragments (b and y ion series). Peptide fragments y6 and y7 clearly identify tryptophan (W) at the PTC position. The black peaks correspond to non-attributed mass-to-charge ratio (m/z) values. […] Readthrough efficiency was determined by measuring luciferase activity in HeLa cells co-transfected with the firefly luciferase construct described in Fig. 1b and with increasing amounts of an expression vector for either FTSJ1 or CTU1 (0.5, 1, or 2 µg). The empty expression vector (E.v.) was used as control. […] The experiment was performed twice and the results of both experiments (Exp1 and Exp2) are shown. c Western blot analysis of FTSJ1 and CTU1. d 2′-O-methylation analysis of tRNA^Trp, tRNA^SER, and tRNA^GLN by RiboMethSeq. […] A molecular weight marker is indicated to the left of each gel. p-values (p) were calculated using Student’s t-test. Source data are provided as a Source Data file.
Among the enzymes modifying tRNAs liable to recognize a stop codon by extended wobbling, human FTSJ1 (TRM7 in yeast) exclusively modifies tRNAs involved in UGA readthrough. In addition to other tRNA targets, FTSJ1 methylates the cytosine at position 34 of tRNA^Trp. Inhibition of this modification could increase the capacity of tRNA^Trp to misdecode and recognize the UGA stop codon. […] FTSJ1 and CTU1 overexpression were assessed by western-blot analysis (Fig. 5c).

Compound: Nc1nc(N)c2[nH]cnc2n1 [DAP, 2,6-diaminopurine]
- Luciferase activity, UAG PTC ([1]; DAP 3.75µM, average of 2 experiments): 366.5±43 and 366.5
- Luciferase activity, UAG PTC ([1]; DAP 3.75µM, experiment 1): 336
- Luciferase activity, UAG PTC ([1]; DAP 3.75µM, experiment 2): 397
- Luciferase activity, UAG PTC ([1]; DAP 37.5µM, average of 2 experiments): 451.5±145 and 451.5
- Luciferase activity, UAG PTC ([1]; DAP 37.5µM, experiment 1): 349
- Luciferase activity, UAG PTC ([1]; DAP 37.5µM, experiment 2): 554
- NMD inhibition, in words [2]: failed to inhibit NMD significantly
- luciferase activity, average (CTU1; 0.5µg CTU1, 0.39µM): 1294.38
- luciferase activity, exp1 (CTU1; 0.5µg CTU1, 0.39µM): 850.5
- luciferase activity, exp1*1,5 (CTU1; 0.5µg CTU1, 0.39µM): 1275.75
- luciferase activity, exp2 (CTU1; 0.5µg CTU1, 0.39µM): 1313
- luciferase activity, average (CTU1; 0.5µg CTU1, 0.78µM): 1925.25
- luciferase activity, exp1 (CTU1; 0.5µg CTU1, 0.78µM): 1235
- luciferase activity, exp1*1,5 (CTU1; 0.5µg CTU1, 0.78µM): 1852.5
- luciferase activity, exp2 (CTU1; 0.5µg CTU1, 0.78µM): 1998
- luciferase activity, average (CTU1; 0.5µg CTU1, 1.56µM): 3744.75
- luciferase activity, exp1 (CTU1; 0.5µg CTU1, 1.56µM): 2474
- luciferase activity, exp1*1,5 (CTU1; 0.5µg CTU1, 1.56µM): 3711
- luciferase activity, exp2 (CTU1; 0.5µg CTU1, 1.56µM): 3778.5
- luciferase activity, average (CTU1; 0.5µg CTU1, 6.25µM): 19050.9
- luciferase activity, exp1 (CTU1; 0.5µg CTU1, 6.25µM): 10689.5
- luciferase activity, exp1*1,5 (CTU1; 0.5µg CTU1, 6.25µM): 16034.2
- luciferase activity, exp2 (CTU1; 0.5µg CTU1, 6.25µM): 22067.5
- luciferase activity, average (CTU1; 0.5µg CTU1, 25µM): 76730.1
- luciferase activity, exp1 (CTU1; 0.5µg CTU1, 25µM): 40518.5
- luciferase activity, exp1*1,5 (CTU1; 0.5µg CTU1, 25µM): 60777.8
- luciferase activity, exp2 (CTU1; 0.5µg CTU1, 25µM): 92682.5
- luciferase activity, average (CTU1; 0.5µg CTU1, 100µM): 153887
- luciferase activity, exp1 (CTU1; 0.5µg CTU1, 100µM): 108746
- luciferase activity, exp1*1,5 (CTU1; 0.5µg CTU1, 100µM): 163120
- luciferase activity, exp2 (CTU1; 0.5µg CTU1, 100µM): 144654
- luciferase activity, average (CTU1; 0.5µg CTU1, 300µM): 196559
- luciferase activity, exp1 (CTU1; 0.5µg CTU1, 300µM): 113240
- luciferase activity, exp1*1,5 (CTU1; 0.5µg CTU1, 300µM): 169861
- luciferase activity, exp2 (CTU1; 0.5µg CTU1, 300µM): 223256
- luciferase activity, average (CTU1; 0.5µg CTU1, 600µM): 155354
- luciferase activity, exp1 (CTU1; 0.5µg CTU1, 600µM): 75601
- luciferase activity, exp1*1,5 (CTU1; 0.5µg CTU1, 600µM): 113402
- luciferase activity, exp2 (CTU1; 0.5µg CTU1, 600µM): 197306
- luciferase activity, average (CTU1; 1µg CTU1, 0.39µM): 1209.75
- luciferase activity, exp1 (CTU1; 1µg CTU1, 0.39µM): 816
- luciferase activity, exp1*1,5 (CTU1; 1µg CTU1, 0.39µM): 1224
- luciferase activity, exp2 (CTU1; 1µg CTU1, 0.39µM): 1195.5
- luciferase activity, average (CTU1; 1µg CTU1, 0.78µM): 1705.88
- luciferase activity, exp1 (CTU1; 1µg CTU1, 0.78µM): 1099.5
- luciferase activity, exp1*1,5 (CTU1; 1µg CTU1, 0.78µM): 1649.25
- luciferase activity, exp2 (CTU1; 1µg CTU1, 0.78µM): 1762.5
- luciferase activity, average (CTU1; 1µg CTU1, 1.56µM): 3430.38
- luciferase activity, exp1 (CTU1; 1µg CTU1, 1.56µM): 2700.5
- luciferase activity, exp1*1,5 (CTU1; 1µg CTU1, 1.56µM): 4050.75
- luciferase activity, exp2 (CTU1; 1µg CTU1, 1.56µM): 2810
- luciferase activity, average (CTU1; 1µg CTU1, 6.25µM): 22021
- luciferase activity, exp1 (CTU1; 1µg CTU1, 6.25µM): 11418
- luciferase activity, exp1*1,5 (CTU1; 1µg CTU1, 6.25µM): 17127
- luciferase activity, exp2 (CTU1; 1µg CTU1, 6.25µM): 26915
- luciferase activity, average (CTU1; 1µg CTU1, 25µM): 66719.5
- luciferase activity, exp1 (CTU1; 1µg CTU1, 25µM): 39882
- luciferase activity, exp1*1,5 (CTU1; 1µg CTU1, 25µM): 59823
- luciferase activity, exp2 (CTU1; 1µg CTU1, 25µM): 73616
- luciferase activity, average (CTU1; 1µg CTU1, 100µM): 131546
- luciferase activity, exp1 (CTU1; 1µg CTU1, 100µM): 100876
- luciferase activity, exp1*1,5 (CTU1; 1µg CTU1, 100µM): 151313
- luciferase activity, exp2 (CTU1; 1µg CTU1, 100µM): 111779
- luciferase activity, average (CTU1; 1µg CTU1, 300µM): 187075
- luciferase activity, exp1 (CTU1; 1µg CTU1, 300µM): 116534
- luciferase activity, exp1*1,5 (CTU1; 1µg CTU1, 300µM): 174802
- luciferase activity, exp2 (CTU1; 1µg CTU1, 300µM): 199348
